Measurements reported in patent publication US7504517B2, “Kv1.5 potassium channel inhibitors” (Wyeth, priority 2006, dated 2009).
pIC50: −log10 of the molar value.

Assays:
Kv1.5 = molecular target: T1, Kv1.5 (Homo sapiens, UniProt P22460); assay: Kv1.5 Patch Clamp EP; assay type: cell-based; conditions: whole cell patch clamp; for inhibition at 1 µM: single point, Kv1.5 stably over expressed in HEK or LTK- cells; for pIC50: HEK or LTK- cells, at least four concentrations, n=3
T1 construct: expressed in transfected cells; host or cells: HEK or LTK- cells
Protocol: The external solution is standard Tyrodes solution. […] Inhibition was measured at the end of the 1 second pulses and expressed relative to controls. Initial Kv1.5 inhibition is estimated by single point determinations done at 1 μM.

L-type calcium channels = assay: FLIPR L-Type Calcium Channel Assay; assay type: cell-based, murine; conditions: HL-1 cells expressing endogenous L-type calcium channels; calcium influx after 20 mM KCl; read-out: L-type Ca^2+ IC50
Protocol: 50 μL per well test compounds are added to the plates and further incubated for 15 min. in a 5% CO2 37° C. incubator. All final solutions contain the anion exchange inhibitor, probenecid (2.5 mM). The 96-well plates are then placed in the center position of the FLIPR 1 (Fluorometric Imaging Plate Reader, Molecular Devices Corporation). Cell monolayers in each well are simultaneously illuminated at 488 nm with an Argon ion laser, and fluorescence emission is monitored using a 510-570 nm bandpass filter and a cooled CCD camera. To depolarize the plasma membrane and activate L-type calcium channels, 50 μL per well of 20 mM KCl (final concentration) are dispensed simultaneously to all 96 wells using the FLIPR's automatic 96-well pipettor. Fluorescence measurements are captured for 5 min. following KCl addition. Calcium influx, expressed as % control, is calculated for each concentration of test compound and concentration-response curves and IC50 values are generated using GraphPad Prism 4.0.

HERG = HERG (Homo sapiens, UniProt Q12809); assay: HERG Patch Clamp EP; conditions: for inhibition at 10 µM: human, HEK cells stably overexpressing HERG
Chain of HERG (Q12809 whole entry): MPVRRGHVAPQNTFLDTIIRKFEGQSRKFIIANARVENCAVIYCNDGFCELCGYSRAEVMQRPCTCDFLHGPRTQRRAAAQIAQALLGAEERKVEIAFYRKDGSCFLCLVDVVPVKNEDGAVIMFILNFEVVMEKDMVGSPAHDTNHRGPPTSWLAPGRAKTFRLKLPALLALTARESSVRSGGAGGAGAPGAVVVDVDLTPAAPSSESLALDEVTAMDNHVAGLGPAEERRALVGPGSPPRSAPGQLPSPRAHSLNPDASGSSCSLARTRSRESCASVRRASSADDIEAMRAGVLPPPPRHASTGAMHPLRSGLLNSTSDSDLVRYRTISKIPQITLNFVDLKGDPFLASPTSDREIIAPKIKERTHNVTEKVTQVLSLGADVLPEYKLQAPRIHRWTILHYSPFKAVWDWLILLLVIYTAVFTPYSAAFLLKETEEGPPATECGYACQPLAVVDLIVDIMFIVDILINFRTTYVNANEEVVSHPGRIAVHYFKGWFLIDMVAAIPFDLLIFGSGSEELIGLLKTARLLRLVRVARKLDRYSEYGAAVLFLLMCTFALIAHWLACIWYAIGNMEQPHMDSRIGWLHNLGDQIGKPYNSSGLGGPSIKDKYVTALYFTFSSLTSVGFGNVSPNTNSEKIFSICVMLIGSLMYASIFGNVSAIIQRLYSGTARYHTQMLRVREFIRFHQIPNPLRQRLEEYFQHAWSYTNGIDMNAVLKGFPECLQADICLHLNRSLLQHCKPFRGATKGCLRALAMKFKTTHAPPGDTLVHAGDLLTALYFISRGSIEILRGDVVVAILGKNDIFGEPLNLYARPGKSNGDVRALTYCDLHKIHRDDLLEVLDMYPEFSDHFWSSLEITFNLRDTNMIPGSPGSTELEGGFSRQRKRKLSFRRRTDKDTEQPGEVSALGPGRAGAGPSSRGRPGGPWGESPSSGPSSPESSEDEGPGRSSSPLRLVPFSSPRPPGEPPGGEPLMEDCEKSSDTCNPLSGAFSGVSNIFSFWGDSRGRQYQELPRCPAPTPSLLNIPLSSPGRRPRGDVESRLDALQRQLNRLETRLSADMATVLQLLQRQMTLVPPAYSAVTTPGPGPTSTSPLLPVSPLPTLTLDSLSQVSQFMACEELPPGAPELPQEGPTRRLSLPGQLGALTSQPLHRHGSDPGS
Protocol: HERG currents are recorded by the whole cell mode of patch clamp electrophysiology as described by Hamill et al.^3 HERG is stably over expressed in HEK cells. Microelectrodes are pulled from borosilicate glass (TW150) and heat polished (tip resistance, 1.5 to 3 megaohms). The external solution is standard Tyrodes solution. The internal (microelectrode) solution contained: 110 mM KCl, 5 mM K2ATP, 5 mM K4BAPTA, 1 mM MgCl2 and 10 mM HEPES, adjusted to pH 7.2 with KOH. […] Compounds are prepared as 10-20 mM DMSO stocks and diluted to appropriate test concentrations. […] Inhibition of HERG is measured at the peak of the tail currents and expressed relative to controls. Initial HERG activity is estimated by single point determinations run at 10 μM. Concentration response curves are generated for appropriate compounds utilizing at least four concentrations and an n=3. Curve fitting and IC50 estimating are done using Graphpad software (Ver. 4). • 1.

T1 sequence (P22460 whole entry): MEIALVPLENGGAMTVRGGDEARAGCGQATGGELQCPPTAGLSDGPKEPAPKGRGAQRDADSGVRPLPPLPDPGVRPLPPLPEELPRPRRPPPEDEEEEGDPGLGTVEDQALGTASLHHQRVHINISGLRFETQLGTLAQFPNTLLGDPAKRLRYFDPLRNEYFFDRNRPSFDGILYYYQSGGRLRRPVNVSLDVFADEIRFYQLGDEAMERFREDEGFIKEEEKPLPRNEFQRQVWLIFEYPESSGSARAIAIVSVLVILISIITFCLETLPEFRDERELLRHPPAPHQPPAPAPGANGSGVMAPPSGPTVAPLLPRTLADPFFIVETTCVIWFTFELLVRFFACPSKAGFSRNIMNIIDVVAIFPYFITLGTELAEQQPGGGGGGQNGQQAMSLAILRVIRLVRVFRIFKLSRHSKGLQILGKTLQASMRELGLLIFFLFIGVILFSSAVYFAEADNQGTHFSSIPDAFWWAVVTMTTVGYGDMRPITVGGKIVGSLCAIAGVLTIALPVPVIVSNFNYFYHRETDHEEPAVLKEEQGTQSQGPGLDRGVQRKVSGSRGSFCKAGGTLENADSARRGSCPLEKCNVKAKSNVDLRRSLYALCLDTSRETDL

| SMILES | inhibition at 1 µM (Kv1.5) | pIC50 (L-type calcium channels) | pIC50 (Kv1.5) | inhibition at 10 µM (HERG) | pIC50 (HERG) |
| --- | --- | --- | --- | --- | --- |
| COc1ccc(CCN2C(=O)N(NS(C)(=O)=O)C[C@@H]2c2ccc(OC(F)F)cc2)cc1 [Compound 171, N-{(4S)-4-[4-(difluoromethoxy)phenyl]-3-[2-(4-methoxyphenyl)ethyl]-2-oxoimidazolidin-1-yl}methanesulfonamide] | 71% | 4.52 | 6.27 | 55% | 5.24 |
| COc1ccc(CCCN2C(=O)N(N)CC2c2ccc(C3CC3)cc2)cc1 (centres unmarked) [Compound 4, 1-Amino-4-(4-cyclopropylphenyl)-3-[3-(4-methoxyphenyl)propyl]-2-imidazolidinone] | 72% | 5.35 |  | 53% |  |
| COc1ccc(CCN2C(=O)N(NC(=O)c3ccno3)CC2c2ccc(C(C)(C)C)cc2)cc1 (centres unmarked) [Compound 79, 1-(Isoxazol-5-ylcarbonylamino)-3-[2-(4-methoxyphenyl)-ethyl]-4-[4-(tert-butyl)phenyl]-2-imidazolidinone] | 68% | 4.96 |  | 70% |  |
| COc1ccc(CCN2C(=O)N(NS(=O)(=O)CC#N)CC2c2ccc3c(c2)OCCO3)cc1 (centres unmarked) [Compound 40, 1-(Cyanomethylsulfonylamino)-3-[2-(4-methoxyphenyl)ethyl]-4-[(2,3-dihydro-benzo[b][1,4]dioxin-6-yl)]-2-imidazolidinone] | 70% | 4.52 |  | 1% |  |
| COc1ccc(CCN2C(=O)N(N(C)S(=O)(=O)Cc3ccccc3)CC2c2ccc(C)c(C)c2)cc1 (centres unmarked) [Compound 67, 1-[(N-methyl-N-benzylsulfonyl)amino]-3-[2-(4-methoxy-phenyl)ethyl]-4-(3,4-dimethylphenyl)-2-imidazolidinone] | 90% | 5.10 |  | 22% |  |
| COc1ccc(CCN2C(=O)N(NS(C)(=O)=O)CC2c2ccc3c(c2)OC(C)(C)O3)cc1 (centres unmarked) [Compound 18, 1-(Methylsulfonylamino)-3-[2-(4-methoxyphenyl)ethyl]-4-(2,2-dimethylbenzo-[1,3]dioxol-5-yl)-2-imidazolidinone] | 59% | 4.62 |  | 12% |  |
| COc1ccc(CCN2C(=O)N(NS(=O)(=O)CF)CC2c2ccc3c(c2)OCCO3)cc1 (centres unmarked) [Compound 37, 1-(Fluoromethylsulfonylamino)-3-[2-(4-methoxyphenyl)ethyl]-4-[(2,3dihydro-benzo[b][1,4]dioxin-6-yl)]-2-imidazolidinone] | 87% | 4.52 |  | 6% |  |
| COc1ccc(CCN2C(=O)N(NS(=O)(=O)Cc3cccnc3)CC2c2ccc(OC(F)F)cc2)cc1 (centres unmarked) [Compound 42, 1-[(N-3-Pyridinylmethylsulfonyl)amino]-3-[2-(4-methoxyphenyl)ethyl]-4-(4-difluoromethoxyphenyl)-2-imidazolidinone] | 91% | 4.70 | 6.38 | 90% |  |
| COc1ccc(CCN2C(=O)N(NS(=O)(=O)C3CC3)CC2c2ccc(OC)cc2)cc1 (centres unmarked) [Compound 29, 1-(Cyclopropylsulfonylamino)-3-[(4-methoxyphenyl)ethyl]-4-(4-methoxyphenyl)-2-imidazolidinone] | 85% | 4.47 |  | 31% |  |
| COc1ccc(CCN2C(=O)N(NS(=O)(=O)CF)CC2c2ccc(C(C)(C)C)cc2)cc1 (centres unmarked) [Compound 36, 1-(Fluoromethylsulfonylamino)-3-[2-(4-methoxyphenyl)ethyl]-4-(4-tert-butyl-phenyl)-2-imidazolidinone] | 85% | 4.85 |  | 50% |  |
| CCC1(CC)CN(NS(C)(=O)=O)C(=O)N1CCc1ccc(OC)cc1 [Compound 111, N-{4,4-diethyl-3-[2-(4-methoxyphenyl)ethyl]-2-oxoimidazolidin-1-yl}methanesulfonamide] | 9% |  |  | 33% |  |
| COc1ccc(C2CN(NS(C)(=O)=O)C(=O)N2CCc2ccc(OC(F)F)cc2)cc1 (centres unmarked) [Compound 142, N-[3-{2-[4-(difluoromethoxy)phenyl]ethyl}-4-(4-methoxyphenyl)-2-oxoimidazolidin-1-yl]methanesulfonamide] | 40% |  |  | 91% |  |

Second part, led by results:

| inhibition at 1 µM (Kv1.5) | pIC50 (L-type calcium channels) | pIC50 (Kv1.5) | SMILES | inhibition at 10 µM (HERG) | pIC50 (HERG) |
| --- | --- | --- | --- | --- | --- |
| 73% | 5.31 |  | COc1ccc(CCN2C(=O)N(N(CCn3ccnc3)C(=O)C(C)C)CC2c2ccc(C(C)(C)C)cc2)cc1 (centres unmarked) [Compound 99, 1-N-[2-(Imidazol-1-yl)ethyl]-N-[iso-butyroyl]amino-3-[2-(4-methoxyphenyl)-ethyl]-4-[(4-tert-butyl)phenyl]-2-imidazolidinone] | 90% |  |
| 72% | 4.52 |  | COc1ccc(CCN2C(=O)N(NC(=O)CS(=O)(=O)N(C)C)CC2c2ccc(C3CC3)cc2)cc1 (centres unmarked) [Compound 82, N-(4-(4-cyclopropylphenyl)-3-(4-methoxyphenethyl)-2-oxoimidazolidin-1-yl)-2-(N,N-dimethylsulfamoyl)acetamide] | 42% |  |
| 16% |  |  | COc1ccc(CCN2C(=O)N(NS(C)(=O)=O)CC2C2CCCCC2)cc1 (centres unmarked) [Compound 145, N-{4-cyclohexyl-3-[2-(4-methoxyphenyl)ethyl]-2-oxoimidazolidin-1-yl}methanesulfonamide] | 11% |  |
| 60% | 4.80 |  | COCCN(N1CC(c2ccc(C3CC3)cc2)N(CCc2ccc(OC)cc2)C1=O)S(C)(=O)=O (centres unmarked) [Compound 68, 1-[(N-Methoxyethyl-N-methylsulfonyl)amino]-3-[2-(4-methoxyphenyl)ethyl]-4-(4-cyclopropylphenyl)-2-imidazolidinone] | 48% |  |
| 96% | 4.85 |  | COc1ccc(CCN2C(=O)N(NS(=O)(=O)Cc3cccnc3)CC2c2ccc(C3CC3)cc2)cc1 (centres unmarked) [Compound 64, 1-[(Pyridin-3-yl)methanesulfonyl]amino-3-[(4-methoxyphenyl)ethyl]-4-(4-cyclopropylphenyl)-imidazolidin-2-one] | 55% |  |
| 74% | 5.15 |  | COc1ccc(CCN2C(=O)N(NCc3ccc(N(C)C)cc3)CC2c2ccc(OC)cc2)cc1 (centres unmarked) [Compound 90, 1-[(4-(Dimethylamino)phenylmethyl)amino]-3-[2-(4-methoxyphenyl)ethyl]-4-(4-methoxyphenyl)-2-imidazolidinone] | 28% |  |
| 95% | 4.52 | 6.45 | COc1ccc(CCN2C(=O)N(NCc3ccc(N(C)C)cc3)CC2c2ccc(C)c(C)c2)cc1 (centres unmarked) [Compound 92, 1-[(4-(Dimethylamino)phenylmethyl)amino]-3-[2-(4-methoxyphenyl)ethyl]-4-(3,4-dimethylphenyl)-2-imidazolidinone] | 58% | 5.25 |
| 89% | 4.66 | 6.62 | COc1ccc(CCN2C(=O)N(NS(N)(=O)=O)CC2c2ccc(C3CC3)cc2)cc1 (centres unmarked) [Compound 10, 1-(Aminosulfonylamino)-3-[2-(4-methoxyphenyl)ethyl]-4-[(4-cyclopropyl)-phenyl]-2-imidazolidinone] | 57% |  |
| 8% |  |  | CCCCC1CN(NS(C)(=O)=O)C(=O)N1CCc1ccc(OC)cc1 (centres unmarked) [Compound 128, N-{4-butyl-3-[2-(4-methoxyphenyl)ethyl]-2-oxoimidazolidin-1-yl}methanesulfonamide] | 19% |  |
